Laboratory results as given in patent US20010044445A1, “AZOLE INHIBITORS OF CYTOKINE PRODUCTION” (priority 1999, published 2001).
Read-outs that look alike come from different tables or passages of the source.

Legend:
[1] = system: IL-4; assay: Measurement of IL-4 Levels in Human T Cells (IL-4 Assay); format: cell-based; settings: Human T cells (HUT 78), phorbol 12-myristate 13-acetate and anti-CD3, 32 hours, ELISA, read-out: IL-4 Inhibition IC50
Description: (§1) Measurement of IL-5 and IL-4 Levels in Human T Cells (IL-4 and IL-5 Assays) Human T cells (HUT 78) were cultured to 1×10^6/mL in RPMI 1640 medium containing 10% fetal calf serum, 100 U/mL penicillin and 100 μg/mL streptomycin. Cultures were then centrifuged, to pellet the cells, and cells resuspended in fresh medium to the same density. 0.2 mL samples of cells were incubated in 96-well plates with 8 μL of various concentrations of compound freshly diluted with the above medium from 100 mM solvent stocks (ethanol or DMSO). Immediately after addition of compound, cells were stimulated by addition of 2 ng/mL phorbol 12-myristate 13-acetate (1 μL of freshly prepared solution of stock (in DMSO) diluted with the above medium added to cells) and 750 μg/mL anti-CD3 (pre-coated at 4° C. overnight). Cell cultures were incubated at 37 OC for 32 hours, then cells pelleted by centrifugation and the supernatants harvested for ELISA. IL-4 and IL-5 ELISA's were performed according to standard procedures. Inhibition was calculated relative to cytokine levels produced from control stimulated cells not treated with compound.

[2] = system: IL-5; assay: Measurement of IL-5 Levels in Human T Cells (IL-5 Assay); format: cell-based; settings: Human T cells (HUT 78), phorbol 12-myristate 13-acetate and anti-CD3, 32 hours, ELISA, read-out: IL-5 Inhibition IC50
Description: as §1

[3] = system: Human peripheral blood mononuclear cells; assay: Human Concanavalin-A Proliferation Assay (Con HU Assay); format: cell-based; settings: concanavalin-A stimulated human PBMC; for IC50: tritiated thymidine
Outline: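 Proliferation read as tritiated thymidine uptake (0.5 μCi/well, 6 h pulse on day 3) in human PBMC cultured 3 days with 2.5 μg/ml (final) concanavalin-A. Cells, 50,000 per well in supplemented RPMI 1640 with 10% FBS, received compound 15 min before mitogen.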

[4] = system: IL-2; assay: CD3 and CD28 Activation of Peripheral Blood T Cells and Determination of Secreted IL-2 Levels (C28 HU Assay); format: cell-based, Human; settings: PBMC stimulated with anti-CD3 and anti CD28 mAbs, 24 hour; for IC50: IL-2 secretion
Description: Human peripheral blood mononuclear cells were cultured in RPMI 1640 medium supplemented with 10 μg/ml gentamicin, 50 μM 2-mercaptoethanol, 1X MEM non-essential amino acids (Sigma Chemical Co., St. Louis, Mo.), 100 U/ml sodium penicillin G, 100 μg/ml streptomycin sulfate, 2 mM L-glutamine, 1 mM sodium pyruvate (Life Technologies, Grand Island, N.Y.) and 10% fetal bovine serum (Hyclone, Logan, Utah) at 37° C. with 5% CO2.
Human peripheral blood mononuclear cells (PBMC) were isolated by Ficoll-Hypaque seperation. PBMCs were stimulated with a combination of immobilized anti-CD3 and soluble anti CD28 mAbs as described in Faltynek, et al. J. Enzyme Inhibition 1995, 9, 111-122, hereby incorporated by reference. Following a 24 hour incubation, cell supernatants were harvested and IL-2 levels were determined. 100 μl of 5 μg/ml monoclonal murine anti-human IL-2 antibody (Biosource International) in D-PBS was added to 96 well Maxisorb plates (Nunc) and incubated at 4° C. overnight. Plates were washed 4 times with D-PBS containing 0.05% Tween 20 (wash buffer) and blocked with D-PBS containing 1% BSA and 10 mM NaN3 (Diluent/Blocking buffer) for 1-3 hours at room temperature or overnight at 4° C. Plates were washed and recombinant human IL-2 diluted (at 10,000, 5,000, 2,500, 1,250, 625, 312.5, 156.25, 78, 39, 20 pg/ml) in diluent/blocking buffer containing a matched percentage of complete RPMI 1640 medium as the unknown samples. Tissue culture supernatant at various dilutions were added in triplicate at 100 μl/well. Plates were incubated for 2 hours at room temperature and washed 4 times with wash buffer. 100 pl of rabbit anti-human IL-2 (10 μg/ml, Genzyme) was added and incubated for 1 hour at room temperature. The incubation was followed by 4 washes and subsequent addition of 100 pl of 1:2000 dilution of alkaline phosphatase-conjugated goat anti-rabbit F(ab′)2 (Biosource International). After 1 hour the plates were washed 4 times and 100 μl of pNPP (Southern Biotech or Sigma) at 1 mg/ml in buffer was added. Color development was allowed to proceed at room temperature for 20 minutes before addition of 50 μl of 2 N NaOH. Absorbance at 405 nm was determined using a plate reader (Molecular Devices). IL-2 concentrations were calcualted using SoftMax (Molecular Devices) based on the IL-2 standard solutions.

[5] = concentration 100 μm (in parentheses in the cell), 3 days

| Compound | IC50 [1] [nM] | IC50 [2] [nM] | IC50 [3] [nM] | % Inhibition of proliferation (at concentrations of 1,10, or 100 μm) [3, 5] | IC50 [4] [nM] | melting point [°C] | IC50 ([1]; HuT78) [nM] | IC50 ([2]; HuT78) [nM] | inhibition at 10 µM ([3]; Homo sapiens, PBMC, 72 h, concentration 10 μm (in parentheses in the cell), 3 days, read-out: % Inhibition of proliferation (at concentrations of 1,10, or 100 μm)) [%] | IC50 ([3]; Homo sapiens, PBMC) [nM] | inhibition at 100 µM ([3]; Homo sapiens, PBMC, 72 h, concentration 100 μm (in parentheses in the cell), 3 days, read-out: % Inhibition of proliferation (at concentrations of 1,10, or 100 μm)) [%] | IC50 ([4]; Homo sapiens) [nM] | inhibition at 100 µM ([4]; Homo sapiens, concentration 100 μM (in c2), read-out: % Inhibition of IL-2 secretion (At concentrations of 1, 10, or 100 μM)) [%] |
| --- | --- | --- | --- | --- | --- | --- | --- | --- | --- | --- | --- | --- | --- |
| O=C(Nc1ccc(Cl)cc1)c1ccc(-n2nc(C(F)(F)F)cc2C(F)(F)F)cc1 [Example 24, N-4-[3,5-bis(trifluoromethyl)-1H-pyrazol-1-yl]-N-(4-chlorophenyl)benzamide] | 150 | 150 | 301 | 98(100) % | 380 |  |  |  |  |  |  |  |  |
| O=C(Nc1ccc(-n2nc(C(F)(F)F)cc2C(F)(F)F)cc1)c1cccc(F)c1F [Example 209, N-[4-[3,5-bis(trifluoromethyl)-1H-pyrazol-1-yl]phenyl]-2,3-difluorobenzamide] |  |  |  |  |  | 147 to 149 | 5 | 38 | 99 | 33 |  |  |  |
| Cc1nnsc1C(=O)Nc1ccc(-n2nc(C(F)(F)F)cc2C(F)(F)F)cc1 [Example 250, N-[4-[3,5-bis(trifluoromethyl)-1H-pyrazol-1-yl]phenyl]-4-methyl-1,2,3-thiadizole-5-carboxamide] | 50 | 80 | 173 | 100(100) % | 102 |  |  |  |  |  |  |  |  |
| Cc1noc(C)c1C(=O)Nc1ccc(-n2nc(C(F)(F)F)cc2C(F)(F)F)cc1 [Example 266, N-[4-[3,5-bis(trifluoromethyl)-1H-pyrazol-1-yl]phenyl]-3,5-dimethyl-4-isoxazolecarboxamide] |  |  |  |  |  | 179 to 180 | 110 | 150 |  | 322 | 100 | 314 | 88 |
